From patent publication US9303076B2, “Cell-penetrating peptides and uses thereof” (Hoffmann-La Roche Inc., priority 2010, dated 2016)
“Also recorded” adds a separate entry of the source.

Legend:
human Eg5 mRNA = experiment: peptide-mediated transfection of siRNA targeting Eg5 (mRNA level, CytoTox-Glo apoptosis); assay type: cell-based
Description: The siRNA sequence specificity of NRTN was investigated via analysis of the peptide's ability to transfect a siRNA duplex targeting human Eg5 mRNA. The Eg5 knockdown dependent induction of apoptosis was determined by performing a CytoTox-Glo cytotoxicity assay (Promega Inc.). The mRNA values obtained at 1 μM were set to 100% to show dose dependent effects. Induction of apoptosis is expressed as percent of medium control. Aha1 siRNA is shown as black filled squares; luciferase siRNA is shown as non-filled circles.
Then, the cells were treated with a luminogenic peptide substrate in order to measure dead-cell protease activity, which is released from cells that have lost membrane integrity. […] The luminescence of this assay therefore represents dead cells. The 96 well plates were then analyzed in an InfiniteF200 luminescence reader.
An effective reduction of cellular Eg5 mRNA levels was found at concentrations of <10 μM. […] It is known that effective depletion of Eg5 mRNA causes mitotic arrest resulting in the onset of apoptosis (Blangy, A. et al. (1995), supra). […] Transfections with control siRNA under identical conditions were not cytotoxic either, thus confirming that the apoptotic phenotype was caused by Eg5 mRNA depletion.

recombinant BCL2 = molecular target: T1, recombinant BCL2 (Homo sapiens, UniProt P10415); experiment: BCL2 binding to bead-immobilized peptides; details: iodoacetyl beads, elution buffer pH 2.8, protein stain
T1 construct: purchased Calbiochem/Merck, Darmstadt, Germany
Description: In order to determine whether the BCL2 binding properties of the Nur77-derived peptide are maintained in the NurNRTN fusion peptide, the respective NurNRTN and NRTN peptides were coupled to iodoacetyl beads (Pierce Biotechnology, Inc., Rockford, Ill., USA). The beads were incubated with recombinant BCL2 (Calbiochem/Merck, Darmstadt, Germany) and washed with PBS and 0.5 M NaCl, 0.025 NaN3, 0.05% Tween20 to remove unbound protein. Specific binding of BCL2 to the immobilized NurNTRN fusion peptide was determined by eluting bound […] from the beads with elution buffer (pH 2.8), transfer of the eluted fraction to nitrocellulose (Invitrogen Corporation, Carlsbad, Calif., USA), and protein detection by means of the MemCode Reversible Protein Stain Kit (Pierce Biotechnology, Inc., Rockford, Ill., USA).

human Aha1 mRNA = experiment: siRNA transfection screening (siAha1 vs siGL3 control, bDNA assay of Aha1/GAPDH mRNA); assay type: cell-based
Description: For the quantification of cellular mRNA levels bDNA (branched DNA) assays were performed which enable the detection of individual mRNA levels. To this end, a defined number of the cells to be analyzed was seeded into 96-well plates and allowed to attach over night. On the next day, the cells were transfected with siRNA.
After further 24 hours, the mRNA species were quantified using the QuantiGene Plex 2.0 assay kit according to the manufacturers instructions (Affymetrix Inc., Santa Clara, Calif., USA). In brief, cell lysates were transferred to a capture plate in the presence of a gene-specific probe set and incubated at 53° C. over night. After washing, the wells were sequentially incubated at 53° C. with an amplifier agent and an alkaline phosphatase (AP)-linked label probe with a washing step in between. Subsequently, the luminescent AP substrate dioxitane was added and incubated for 30 min at 53° C. Luminescence was assayed using an InfiniteF200 luminescence reader (Tecan Austria GmbH, Groding, Austria).
In order to analyze the potential CPPs for their ability to transfect siRNA into mammalian cells an increasing peptide concentration (from 1 μM to 20 μM) was employed along with a constant siRNA concentration (100 nM). This range of peptide concentrations was used as it had been shown that positively charged peptides such as TAT are internalized into cells in ranges up to 10 μM and remain in intracellular membrane compartments without significant egress into the cytosol (Duchardt, F. et al. (2007) Traffic 8, 848-866). […] A concentration of 10 nM siRNA is in the saturation range as determined in control experiments using the DharmaFECT transfection reagent (Dharmacon, Inc., Lafayette, Colo., USA; data not shown).
The siRNA oligonucleotides employed were directed against human Aha1 mRNA (Panaretou, B. et al. (2002) Mol. Cell 10, 1307-1318) or against luciferase mRNA as a control.
Complexes of siRNA and the respective peptides were formed in OptiMEM medium and incubated for 15 minutes at room temperature. The cells were incubated in the presence of the complexes for three hours in OptiMEM. After washing, the cells were incubated for further 21 or 45 hours in normal growth medium. Thereafter, the levels of Aha1 mRNA and a reference mRNA (i.e. GAPDH mRNA) were measured by means of a bDNA assay. These assays were performed with cells that were transfected with siAHA1 and with a control siRNA (siGL3, luciferase), respectively.
As a measure for specific RNAi, the reduction of Aha1 mRNA levels relative to GAPDH mRNA levels was compared in siAHA1-transfected cells and siGL3-transfected cells. Specific siRNA mediated transfection causes a reduction in Aha1/GAPDH mRNA values in siAhA1-compared to siGL3-transfected cells. FIG. 3 depicts the screening readout of these assays: the Aha1/GAPDH mRNA values of non-transfected control cells were set to 100% (for each assay), and the Aha1/GAPDH mRNA values of siAha1- or siGL3-transfected cells were expressed relative to that. For this normalized data set, the differences between the respective Aha1/GAPDH mRNA levels of siAha1- and siGL3-transfected cells were determined. Specific peptides caused a significant reduction in siAha1 transfection without reducing siGL3 transfections, which results in positive difference values. The more pronounced these values are, the more specific RNAi is observed (cf. FIG. 3).

T1 sequence (P10415 whole entry): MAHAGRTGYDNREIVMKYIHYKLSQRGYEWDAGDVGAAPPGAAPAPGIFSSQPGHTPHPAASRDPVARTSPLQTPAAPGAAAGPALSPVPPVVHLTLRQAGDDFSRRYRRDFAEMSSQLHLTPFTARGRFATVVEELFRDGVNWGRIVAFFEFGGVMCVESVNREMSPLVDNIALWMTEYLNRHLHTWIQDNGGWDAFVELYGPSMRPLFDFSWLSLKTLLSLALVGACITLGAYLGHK
Description for MCF7 cells: MCF7 cells were seeded at a density of 15.000 cells per well in 96 well plates. The cells were incubated for 24 hours at 37° C., 5% CO2 and 85% humidity in RPMI 1640 medium supplemented with 10% FCS (fetal calf serum) and L-glutamine. For functional assays, the cells were washed in OptiMEM medium and RPMI 1640 was replaced with OptiMEM (all reagents were purchased from Invitrogen Corporation, Carlsbad, Calif., USA). Complexes of siRNAs and peptides were formed by incubation of 100 nM siRNA with the indicated peptide concentrations in OptiMEM for 30 minutes at room temperature. The complexes were added to the cells and incubated for 3 hours. Subsequently, OptiMEM was replaced with normal RPMI 1640 growth medium. The cells were incubated for further 21 hours for generating bDNA lysates, and for further 45 hours for performing CellTiter-Glo or CytoTox-Glo assays (cf. below).
In order to measure the number of living cells the CellTiter-Glo Luminescent Cell Viability Assay (Promega Corporation, Madison, Wis., USA) was used according to the protocol of the manufacturer. The cells were incubated for 48 hours in the presence of peptides and siRNAs. Subsequently, the cells are lysed, and a luminescent signal proportional to the amount of ATP present is generated which, in turn, is proportional to the number of living cells present. Luminescence was analyzed in an InfiniteF200 luminescence reader.
Based on this observation, GAPDH mRNA levels were used as a general readout for toxicity: an average measurement of 100% GAPDH mRNA relative to the medium control was considered as non-toxic, values between 99% and 70% as moderate toxic, and values of less than 70% as toxic (cf. FIG. 3).
Similarly, peptides resulting in GAPDH mRNA values >70% were classified as “nontoxic”, whereas peptides that caused a reduction of GAPDH mRNA to lesser values were termed “toxic”.

GAAEAAARVYDLGLRRLRQRRRLRRERVRA (NRTN peptide sequence; listed as Homo sapiens) [peptide derived from human neurturin]
apoptotic phenotype upon siEg5 transfection (human Eg5 mRNA; CytoTox-Glo): an apoptotic phenotype was observed
peptide concentration giving effective reduction of cellular Eg5 mRNA levels (human Eg5 mRNA; siRNA targeting Eg5): < 10 µM
BCL2 in eluates from peptide-coated beads (recombinant BCL2): very small amounts of BCL2 were eluted
peptide concentration at which cell growth/viability was affected (MCF7 cells): above 10 μM
siRNA transfection activity (specific Aha1 mRNA reduction relative to GAPDH mRNA) (human Aha1 mRNA; MCF7 cells, 100 nM siRNA, peptide 1 μM to 20 μM): even more effective reduction of Aha1 mRNA levels
transfection efficacy compared with TAT / control peptides (human Aha1 mRNA; NRTN: at lower non-toxic concentrations): higher than that of all (positive) control peptides analyzed; also recorded: efficacy even higher than TAT
